One compound from patent US12576107B2, “Methods of treating chronic inflammatory diseases” (METIMEDI PHARMACEUTICALS CO., LTD., priority 2018, dated 2026) can be followed below.

In experiment [1] the test system is lactate dehydrogenase B. As to the kind of experiment: Human fibroblast in vitro experiment, Western blot in CCD-18Co cells. As to conditions: 2.5 mM; CCD-18Co cells (human colon fibroblast); hypoxia. In kind it is cell-based. The procedure:
Human Colon Fibroblast cell line, CCD-18-Co, was purchased from American Type Culture Collection (Manassas, VA, USA). The CCD-18Co cells were maintained in DMEM containing 10% fetal bovine serum (Life Technologies, Gaithersburg, MD, USA), 100 IU/ml penicillin, and 100 μg/ml streptomycin (Welgene, Daegu, South Korea).
(§1) To prepare whole cell lysate, cells were lysed with lysis buffer (1% NP-40, 0.25% sodium deoxycholate, 150 mM NaCl, 1 mM EDTA, 1% Triton X-100, 50 mM Tris-HCl (pH 7.4), 10% Glycerol) with protease inhibitor cocktail (Roche, Basel, Switzerland) and phosphatase inhibitors (NA3VO4 1 mM, NaF 100 mM). Then, protein concentration was measured using the Bicinchoninic acid (BCA) assay kit (Thermo Scientific, Waltham, MA). Whole cell or nuclear lysates were transferred onto polyvinylidene fluoride membranes (Merck Millipore, Billerica, MA, USA). After blocking in 5% non-fat milk (Bio-Rad, Hercules, CA, USA) for 1 h, the membranes were incubated overnight at 4° C. with primary antibody diluted in TBST containing 100 mM Tris-HCl (pH 7.5), 1.5 M NaCl, and 0.5% Tween-20 obtained from Sigma-Aldrich, to which 5% BSA and 0.1% sodium azide (Sigma-Aldrich) had been added. Specific primary antibodies to HIF-1α (1:1000), HIF-2α (1:1000), LDH-A (1:1000), LDH-B (1:1000), TLR-4 (1:1000), NF-κB (1:1000), VEGF (1:1000), α-tubulin (1:1000), Actin (1:1000), and GAPDH (1:5000). […]

Experiment [2] has as its system TLR-4. Description: Western blot of TLR-4 in HepG2 cells. In kind it is cell-based, Human. To be noted: 2.5 mM; HepG2 cells (liver epithelium); hypoxia. The procedure:
Human Hepatocellular carcinoma cell line, HepG2, was purchased from American Type Culture Collection (Manassas, VA, USA). The HepG2 cells were maintained in RPMI 1640 containing 10% fetal bovine serum (Life Technologies, Gaithersburg, MD, USA), 100 IU/ml penicillin, and 100 μg/ml streptomycin (Welgene, Daegu, South Korea).
as §1

In experiment [3] the test system is hypoxia inducible factor-1α (HIF-1α). As to the kind of experiment: Immunocytochemistry of HIF-1α in ARPE-19 cells. In kind it is cell-based, Human. To be noted: 2.5 mM. The procedure: (§2) Human retinal pigment epithelium cell line, ARPE-19, was purchased from American Type Culture Collection (Manassas, VA, USA). The ARPE-19 cells were maintained in RPMI1640 containing 10% fetal bovine serum (Life Technologies, Gaithersburg, MD, USA), 100 IU/ml penicillin, and 100 μg/ml streptomycin (Welgene, Daegu, South Korea).
(§3) ARPE-19 and SK-N-SH cells were fixed on bio-coated coverslips (BD bioscience, San Jose, CA, USA) by 4% PFA for 20 min and then incubated with the primary antibodies for 15 h. The primary antibodies were as follows: HIF-1a (1:300, BD Biosciences, San Jose, CA, USA); LDH-A (1:300, Santa Cruz Biotechnology, Santa Cruz, CA, USA); LDH-B (1:300, Santa Cruz Biotechnology, Santa Cruz, CA, USA); NF-κB (1:300, Santa Cruz Biotechnology, Santa Cruz, CA, USA); TLR-4 (1:300, Santa Cruz Biotechnology, Santa Cruz, CA, USA); apoE (1:200, Santa Cruz Biotechnology, Santa Cruz, CA, USA). After PBS wash, the cells were incubated with anti-mouse secondary biotinylated antibody (1:2000, Vector Laboratorie, Burlingame, CA, USA) and visualized with streptavidin conjugated to Fluorescein (Vector Laboratorie, Burlingame, CA, USA). […] Confocal fluorescence images were obtained with confocal laser scanning microscopy (LSCM, Nikon A1+, Tokyo, Japan) under a 60× oil immersion lens.

Experiment [4] relates to nuclear factor-kappa B. Description: Immunocytochemistry of nuclear factor-kappa B in ARPE-19 cells. The format is cell-based, Human. To be noted: 2.5 mM, hypoxia. The procedure: as §2, §3
Experiment [5] concerns toll like receptor 4. As to the kind of experiment: Immunocytochemistry of toll like receptor 4 in ARPE-19 cells. To be noted: 2.5 mM, hypoxia. In kind it is cell-based, Human. The procedure: as §2, §3
In experiment [6] the test system is lactate dehydrogenase B. As to the kind of experiment: Immunocytochemistry of lactate dehydrogenase B in ARPE-19 cells. In kind it is cell-based, Human. To be noted: 2.5 mM, hypoxia. The procedure:
as §2, §3

For experiment [7], the system named is High cholesterol diet supplied ApoE-deficient mice (Atherosclerosis). As to the kind of experiment: Vascular disease (atherosclerosis) model, high fat diet ApoE-deficient mice. In kind it is in vivo, BALB/c ApoE^shi mice. The procedure: Animals. […] Fibe-week old male BALB/c ApoE^shi mice were obtained from Japan SLC Inc. (Shizuoka, Japan) and bred under specific-pathogen-free (SPF) conditions. All animals were maintained in a 12-hour light/dark cycle at 22-25° C. with free access to food and water.
Calcium lactate was purchased from Sigma Aldrich (St. Louis, MO, USA).
Animal model for vascular disease. BALB/c ApoE^shi species is used for spontaneous induction of vascular disease. In this investigation, a high fat (40%) diet was provided for 4 weeks to induce strong atherosclerosis.
Histological analysis. The thoracic aorta was transected, and a half of the aorta was fixed in 10% neutral buffer formalin fixative solution. Then, histological analysis was performed. Histological analysis was performed with H&E and Oil red O staining. Aortic wall thickness, atherosclerotic plaque areas, foam cell numbers, and lipidated regions were analyzed.
Statistical analysis. Statistical analysis was performed using SPSS statistics, and the results were analyzed using Student t-test. Histologic analysis was performed using the Mann-Whitney method. P<0.05 was considered statistically significant.

The mark [8] stands for this setting: 2 mg/kg daily subcutaneous, male ApoE-deficient mice, mean ± S.E.M.
The mark [9] stands for this setting: male ApoE-deficient mice, n = 8, mean ± S.E.M.

Take `CC(O)C(=O)[O-].CC(O)C(=O)[O-].[Ca+2]` (stereo not shown) [calcium lactate]: the “lactate dehydrogenase B, Western blot” value in experiment [1] is listed as “increased”. Besides, the “inflammatory factor (TLR-4), Western blot” value in experiment [2] is “decreased”. Moreover, the “hypoxia inducible factor-1α (HIF-1α), immunocytochemistry” value in experiment [3] was “decreased”. Also, the “inflammatory factor (nuclear factor-kappa B), immunocytochemistry” value in experiment [4] was “decreased”. The “inflammatory factor (toll like receptor 4), immunocytochemistry” value in experiment [5] is given as “decreased”. The “lactate dehydrogenase B, immunocytochemistry” value in experiment [6] is “increased”. In experiment [7] (setting [8]), the “ATHEROSCLEROTIC PLAQUE AREAS” value is given as 0.10 ± 0.03^++ mm^2, the “FOAM CELL NUMBERS” value was 39.00 ± 10.13^+ cells/mm^2, the “LIPID DEPOSITED REGIONS” value was 0.09 ± 0.03^++ mm^2 and the “MEAN AORTA WALL THICKNESS” value is recorded as 85.83 ± 8.70^+ μm. Further, in experiment [7] (ApoE-deficient mice), the “atherosclerotic lesions of aorta (H&E, oil red O)” value is on record as “decreased”. Also, the “pathogenic factors cholesterol (TCHO), LDL cholesterol (LDL), triglycerides (TG), HDL-cholesterol (HDL)” value in experiment [7] (ApoE-deficient mice, blood) is given as “not controlled”. In experiment [7] (setting [9]), the “HDL (clinical blood biochemistry)” value came out at 197.2 ± 3.7 mg/dL, the “LDL (clinical blood biochemistry)” value is 1537.1 ± 14.2 mg/dL, the “TCHO (clinical blood biochemistry)” value is 2328.0 ± 56.7 mg/dL and the “TG (clinical blood biochemistry)” value was 54.8 ± 2.8 mg/dL.
